Test results as given in patent US20230116703A1, “NOVEL ERGOLINES AND METHODS OF TREATING MOOD DISORDERS” (priority 2021, published 2023).
Where two headings read alike, the source gives them in different places.

Key:
Alpha1A receptor = target: T1, Alpha1A receptor (Homo sapiens, UniProt P35348); assay: FLIPR Ca^2+ flux agonist assay at Alpha1A; type: cell-based
T1 sequence (P35348 1-466): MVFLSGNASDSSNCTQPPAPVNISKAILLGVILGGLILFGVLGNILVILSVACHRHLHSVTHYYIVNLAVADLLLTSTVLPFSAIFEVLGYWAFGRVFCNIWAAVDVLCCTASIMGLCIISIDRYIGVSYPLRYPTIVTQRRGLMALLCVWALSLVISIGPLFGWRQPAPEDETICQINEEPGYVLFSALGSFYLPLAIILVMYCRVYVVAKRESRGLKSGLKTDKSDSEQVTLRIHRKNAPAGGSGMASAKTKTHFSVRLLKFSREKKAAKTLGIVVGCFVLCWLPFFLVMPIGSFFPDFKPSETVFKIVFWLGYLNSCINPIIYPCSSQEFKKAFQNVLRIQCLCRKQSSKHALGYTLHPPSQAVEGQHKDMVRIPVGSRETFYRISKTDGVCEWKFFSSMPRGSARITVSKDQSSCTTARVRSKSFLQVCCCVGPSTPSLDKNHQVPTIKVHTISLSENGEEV
Procedure: Disclosed compounds were tested for agonist activity at several adrenergic (Alpha1A and Alpha2A) and dopamine (D1 and D2) receptor subtypes using Ca^2+ flux functional assays, with the results summarized in Table 6. Selectivity for the 5-HT2A receptor over these other targets varied depending on the specific target and compound.
(§1) Functional Assays at Adrenergic and Dopamine Receptors. Agonist activity at Alpha1A, Alpha2A, D1, and D2 receptors was determined using a FLIPR Ca^2+ flux assay at WuXi AppTec (Hong Kong) Limited according to their standard protocols. Briefly, stably transfected cells expressing the receptor of interest were grown and plated in a 384 well plate and incubated at 37° C. and 5% CO2 overnight. A solution of 250 mM probenecid in 1 mL FLIPR assay buffer was prepared fresh. This was combined with a fluorescent dye (Fluo-4 Direct™) to make a final assay concentration of 2.5 mM. Compounds were diluted 1:3.16 for 10 points and 750 nL was added to a 384 well compound plate using ECHO along with 30 μL assay buffer. The fluorescent dye was then added to the assay plate along with assay buffer to a final volume of 40 μL. The cell plate was incubated for 50 min at 37° C. and 5% CO2 and placed into the FLIPR Tetra along with the compound plate. 10 μL of references and compounds were then transferred from the compound plate into the cell plate and the fluorescent signal was read.

5-HT2A receptor = target: T2, 5-HT2A receptor (Homo sapiens, UniProt P28223); assay: biochemical; type: binding; settings: 1 nM [^3H]ketanserin, HEK293 stable cell line; read-out: 5-HT2A Receptor Ki (nM) ([^3H]ketanserin)
T2 construct: host or cells: HEK293
In short: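 Binding affinity comes from a [^3H]ketanserin radioligand assay run under literature-adapted conditions.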

[1] = Metabolic stability in mouse liver microsomes (MLM); type: in vitro ADME; settings: 0.50 mg protein per mL; for t1/2: MLM (CD-1), 1 μM; for microsomal CLint at 1 μM: mouse, pooled mouse liver microsomes, pH 7.4, MLM (CD-1)
Description: MLM Stability Pooled MLM from CD-1 mice (BIOIVT M00501) were used.

D2 receptor = D2 receptor (Homo sapiens, UniProt P14416); assay: FLIPR Ca^2+ flux agonist assay at D2; type: cell-based
Procedure: as §1, with “Compounds were diluted 1:3.16 for 10 points and 750 nL was added to a 384 well compound plate using ECHO along with 30 μL assay buffer.” left out

5-HT2B receptor = target: T3, 5-HT2B receptor (Homo sapiens, UniProt P41595); assay: 5-HT2B receptor radioligand binding with [^3H]LSD
T3 construct: host or cells: HEK293

[2] = Ca^2+ flux, agonist, read-out: Alpha1A EC50
[3] = Ca^2+ flux, agonist, read-out: D2 EC50

T2 sequence (P28223 whole entry): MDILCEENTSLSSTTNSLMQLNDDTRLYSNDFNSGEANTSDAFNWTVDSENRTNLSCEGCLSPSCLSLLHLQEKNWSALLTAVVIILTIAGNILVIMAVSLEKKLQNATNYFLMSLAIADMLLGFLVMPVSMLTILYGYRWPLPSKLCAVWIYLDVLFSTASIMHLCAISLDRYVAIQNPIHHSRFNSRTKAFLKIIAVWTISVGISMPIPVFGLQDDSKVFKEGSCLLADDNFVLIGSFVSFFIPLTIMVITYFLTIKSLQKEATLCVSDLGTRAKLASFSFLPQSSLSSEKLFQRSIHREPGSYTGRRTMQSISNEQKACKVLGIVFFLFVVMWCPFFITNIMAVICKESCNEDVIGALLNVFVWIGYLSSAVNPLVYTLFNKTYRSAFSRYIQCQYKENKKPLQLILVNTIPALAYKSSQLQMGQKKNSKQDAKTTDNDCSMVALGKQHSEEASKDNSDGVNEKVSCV
Chain of D2 receptor (P14416 whole entry): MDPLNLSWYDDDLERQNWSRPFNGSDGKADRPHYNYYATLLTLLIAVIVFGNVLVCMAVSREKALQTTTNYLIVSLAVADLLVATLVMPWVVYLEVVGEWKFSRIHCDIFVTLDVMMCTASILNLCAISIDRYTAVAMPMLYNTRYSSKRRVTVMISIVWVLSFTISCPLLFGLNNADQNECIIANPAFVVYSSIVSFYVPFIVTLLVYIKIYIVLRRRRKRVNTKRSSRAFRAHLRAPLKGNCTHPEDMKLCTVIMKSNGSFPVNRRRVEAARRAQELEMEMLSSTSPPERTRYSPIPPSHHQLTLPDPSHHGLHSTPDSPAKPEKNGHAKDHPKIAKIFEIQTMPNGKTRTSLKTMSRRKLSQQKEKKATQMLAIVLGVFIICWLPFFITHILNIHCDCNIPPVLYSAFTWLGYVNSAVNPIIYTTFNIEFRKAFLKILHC
T3 sequence (P41595 whole entry): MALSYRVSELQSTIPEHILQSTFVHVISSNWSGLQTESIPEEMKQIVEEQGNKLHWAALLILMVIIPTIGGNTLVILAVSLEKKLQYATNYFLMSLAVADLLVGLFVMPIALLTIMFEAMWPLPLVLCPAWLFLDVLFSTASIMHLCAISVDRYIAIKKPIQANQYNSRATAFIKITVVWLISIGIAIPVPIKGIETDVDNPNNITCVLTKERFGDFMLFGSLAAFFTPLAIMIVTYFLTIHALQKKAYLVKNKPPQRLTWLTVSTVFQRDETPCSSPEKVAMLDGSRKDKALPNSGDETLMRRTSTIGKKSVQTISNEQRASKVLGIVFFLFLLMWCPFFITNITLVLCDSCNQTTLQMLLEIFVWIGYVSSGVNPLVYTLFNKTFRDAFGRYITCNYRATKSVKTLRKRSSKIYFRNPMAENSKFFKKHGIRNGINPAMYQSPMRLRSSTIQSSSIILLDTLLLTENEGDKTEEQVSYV

Row | SMILES | EC50 (Alpha1A receptor) | Ki (5-HT2A receptor) | t1/2 [1] | microsomal CLint at 1 μM [1] | EC50 (D2 receptor) | Ki (5-HT2B receptor) | EC50 (Alpha1A receptor; [2]) | EC50 (D2 receptor; [3])
1 | CCCN1C[C@H](C(=O)N(CC)CC)C=C2c3cccc4[nH]cc(c34)C[C@H]21 [Compound 1, (6aR,9R)—N,N-diethyl-7-propyl-4,6,6a,7,8,9-hexahydroindolo[4,3-fg]quinoline-9-carboxamide] | 8.82 nM | 1.06 nM | 2.3 min | 615 µL/min/mg | 2.17 nM | – | – | –
2 | CCCN1C[C@H](C(=O)N[C@H](C)CC)C=C2c3cccc4[nH]cc(c34)C[C@H]21 [Compound 3, (6aR,9R)—N—((R)-sec-butyl)-7-propyl-4,6,6a,7,8,9-hexahydroindolo[4,3-fg]quinoline-9-carboxamide] | 42.3 nM | 1.36 nM | 1.6 min | 894 µL/min/mg | 27.2 nM | 4.09 nM | – | –
3 | CCCN1C[C@H](C(=O)NC(CC)CC)C=C2c3cccc4[nH]cc(c34)C[C@H]21 [Compound 6, (6aR,9R)—N-(pentan-3-yl)-7-propyl-4,6,6a,7,8,9-hexahydroindolo[4,3-fg]quinoline-9-carboxamide] | – | 1.16 nM | 0.6 min | 2420 µL/min/mg | 7.01 nM | 3.33 nM | – | –
4 | CCN(CC)C(=O)[C@@H]1C=C2c3cccc4[nH]cc(c34)C[C@H]2N(CCc2ccccc2OC)C1 [Compound 11, (6aR,9R)—N,N-diethyl-7-(2-methoxyphenethyl)-4,6,6a,7,8,9-hexahydroindolo[4,3-fg]quinoline-9-carboxamide] | – | 0.69 nM | 0.917 min | 1510 µL/min/mg | – | – | > 31600 nM | 854 nM
5 | CCCN1C[C@H](C(=O)N2[C@@H](C)C[C@@H]2C)C=C2c3cccc4[nH]cc(c34)C[C@H]21 [Compound 4, ((2S,4S)-2,4-dimethylazetidin-1-yl)((6aR,9R)-7-propyl-4,6,6a,7,8,9-hexahydroindolo[4,3-fg]quinolin-9-yl)methanone] | 116 nM | 3.07 nM | 0.8 min | 1670 µL/min/mg | 21 nM | 17.7 nM | – | –
6 | CCN(CC)C(=O)[C@@H]1C=C2c3cccc4[nH]cc(c34)C[C@H]2N(Cc2ccccc2OC)C1 [Compound 10, (6aR,9R)—N,N-diethyl-7-(2-methoxybenzyl)-4,6,6a,7,8,9-hexahydroindolo[4,3-fg]quinoline-9-carboxamide] | – | 32.7 nM | 1 min | 1400 µL/min/mg | – | – | > 31600 nM | 983 nM
7 | CCN(CC)C(=O)[C@@H]1C=C2c3cccc4[nH]cc(c34)C[C@H]2N(CCCF)C1 [Compound 2, (6aR,9R)—N,N-diethyl-7-(3-fluoropropyl)-4,6,6a,7,8,9-hexahydroindolo[4,3-fg]quinoline-9-carboxamide] | 237 nM | 2.79 nM | 2.666 min | 520 µL/min/mg | 27.7 nM | 4.1 nM | – | –
